The numbers were not newly measured in PMC5657425 (Pediatric blood & cancer, 2016), which cites them from elsewhere.

In series [1] the test system is PPTP solid tumor xenografts.
In series [2] the test system is well-differentiated or dedifferentiated liposarcoma.
The test system of the next series is Rh18 xenograft. Conditions: single agent.

In the case of `CCOc1cc(C(C)(C)C)ccc1C1=N[C@@](C)(c2ccc(Cl)cc2)[C@@](C)(c2ccc(Cl)cc2)N1C(=O)N1CCN(CCCS(C)(=O)=O)CC1` [RG7112], the “response of the osteosarcoma panel” value in series [1] (osteosarcoma panel) is “no response”. Moreover, the “objective regressions in twenty six solid tumor models with wild-type TP53” value in series [1] (prior PPTP testing) is on record as “five”. Further, the “adverse effect in phase 1 and 2 evaluations” value in series [2] is recorded as “thrombocytopenia”. In series [2] (phase 2, well-differentiated or dedifferentiated liposarcoma), the “stable disease among 20 patients treated” value is listed as 14.

With `COc1cc(C(=O)O)ccc1NC(=O)[C@@H]1N[C@@H](CC(C)(C)C)[C@](C#N)(c2ccc(Cl)cc2F)[C@H]1c1cccc(Cl)c1F` [RG7388], the “response of Rh18” value in the series with Rh18 xenograft is reported as “unresponsive”.
